Source: the supplement of paper PMC10307832

compound: CC1=CC(=CC=C1)NC2=NC(=CS2)C3=CC=NC=C3; assay: relative viability (nuclei count vs DMSO), 5 days (fraction); higher = more cells survive; conditions: 0.08 µM
Summary of the method: (§1)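 Five library-drug doses spaced by √10 were pinned onto vehicle-anchored 1536-well plates of lung cancer cell lines that had been kept overnight at 37 °C. Cells went 5 days without medium change, then were fixed, permeabilised and Hoechst-stained together, imaged at 4× and counted by MetaXpress. Viability is the ratio of treated-well to vehicle-well nuclei, taken as a median over plates. Plates required control CV below 25% and at least one doubling.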

| Cell Line | relative viability |
| --- | --- |
| LK-2 | 0.816 |
| NCI-H2126 | 0.881 |
| NCI-H1793 | 0.75 |
| H3255 | 0.916 |
| COR-L23 | 0.981 |
| COR-L 105 | 0.742 |
| IA-LM | 0.856 |
| LOU-NH91 | 0.826 |
| NCI-H358 | 0.997 |
| NCI-H3122 | 0.983 |
| HOP-62 | 0.952 |
| HCC-44 | 0.862 |
| A549 | 0.888 |
| LXF-289 | 0.942 |
| BEN | 0.928 |
| HARA | 0.741 |
| HCC-78 | 0.781 |
| LCLC-97TM1 | 0.763 |
| NCI-H2023 | 0.898 |
| A-427 | 0.864 |
| NCI-H460 | 0.965 |
| NCI-H727 | 0.698 |
| NCI-H1755 | 0.926 |
| NCI-H520 | 0.922 |
| NCI-H2405 | 0.851 |
| SW 1573 | 0.989 |
| NCI-H1395 | 0.765 |

same assay, conditions: 0.253 µM

| Cell Line | relative viability |
| --- | --- |
| NCI-H2087 | 0.895 |
| Calu-6 | 0.936 |
| HCC-366 | 0.956 |
| NCI-H1703 | 0.977 |
| NCI-H647 | 0.87 |
| LK-2 | 0.98 |
| NCI-H2126 | 0.864 |
| NCI-H1793 | 0.801 |
| H3255 | 0.931 |
| COR-L23 | 0.986 |
| COR-L 105 | 0.901 |
| IA-LM | 0.772 |
| LOU-NH91 | 0.849 |
| NCI-H358 | 0.899 |
| NCI-H3122 | 1.05 |
| HOP-62 | 0.972 |

| Cell Line | relative viability |
| --- | --- |
| HCC-44 | 0.795 |
| A549 | 0.871 |
| LXF-289 | 0.987 |
| BEN | 0.95 |
| HARA | 0.975 |
| HCC-78 | 0.789 |
| LCLC-97TM1 | 0.818 |
| NCI-H2023 | 0.94 |
| A-427 | 0.951 |
| NCI-H460 | 0.908 |
| NCI-H727 | 0.737 |
| NCI-H1755 | 0.942 |
| NCI-H520 | 1.06 |
| NCI-H2405 | 0.918 |
| SW 1573 | 0.945 |
| NCI-H1395 | 0.734 |

same assay, conditions: 0.8 µM

| Cell Line | relative viability |
| --- | --- |
| NCI-H2087 | 1.01 |
| Calu-6 | 0.873 |
| HCC-366 | 1.03 |
| NCI-H1703 | 0.907 |
| NCI-H647 | 0.797 |
| LK-2 | 1.27 |
| NCI-H2126 | 0.893 |
| NCI-H1793 | 0.898 |
| H3255 | 0.984 |
| COR-L23 | 0.926 |
| COR-L 105 | 0.818 |
| IA-LM | 0.9 |
| LOU-NH91 | 0.943 |
| NCI-H358 | 0.868 |
| NCI-H3122 | 1.04 |
| HOP-62 | 1.08 |

| Cell Line | relative viability |
| --- | --- |
| HCC-44 | 0.843 |
| A549 | 0.943 |
| LXF-289 | 0.974 |
| BEN | 0.913 |
| HARA | 0.815 |
| HCC-78 | 0.811 |
| LCLC-97TM1 | 0.96 |
| NCI-H2023 | 0.926 |
| A-427 | 0.968 |
| NCI-H460 | 0.936 |
| NCI-H727 | 0.808 |
| NCI-H1755 | 0.866 |
| NCI-H520 | 1.03 |
| NCI-H2405 | 0.85 |
| SW 1573 | 1.08 |
| NCI-H1395 | 0.898 |

same assay, conditions: 2.53 µM

| Cell Line | relative viability |
| --- | --- |
| NCI-H2087 | 0.877 |
| Calu-6 | 0.943 |
| HCC-366 | 1.02 |
| NCI-H1703 | 0.986 |
| NCI-H647 | 0.869 |
| LK-2 | 0.793 |
| NCI-H2126 | 0.824 |
| NCI-H1793 | 0.816 |
| H3255 | 0.934 |
| COR-L23 | 0.877 |
| COR-L 105 | 0.776 |
| IA-LM | 0.76 |
| LOU-NH91 | 0.905 |
| NCI-H358 | 1.01 |
| NCI-H3122 | 1.06 |
| HOP-62 | 0.997 |

| Cell Line | relative viability |
| --- | --- |
| HCC-44 | 0.797 |
| A549 | 0.929 |
| LXF-289 | 0.974 |
| BEN | 0.897 |
| HARA | 0.685 |
| HCC-78 | 0.817 |
| LCLC-97TM1 | 0.927 |
| NCI-H2023 | 0.876 |
| A-427 | 0.859 |
| NCI-H460 | 0.884 |
| NCI-H727 | 0.791 |
| NCI-H1755 | 0.857 |
| NCI-H520 | 1.08 |
| NCI-H2405 | 0.915 |
| SW 1573 | 0.962 |
| NCI-H1395 | 0.729 |

same assay, conditions: 8 µM

| Cell Line | relative viability |
| --- | --- |
| NCI-H2087 | 0.93 |
| Calu-6 | 0.87 |
| HCC-366 | 0.931 |
| NCI-H1703 | 0.946 |
| NCI-H647 | 0.76 |
| LK-2 | 1.41 |
| NCI-H2126 | 0.863 |
| NCI-H1793 | 0.841 |
| H3255 | 0.903 |
| COR-L23 | 0.989 |
| COR-L 105 | 0.667 |
| IA-LM | 0.677 |
| LOU-NH91 | 0.851 |
| NCI-H358 | 0.966 |
| NCI-H3122 | 0.972 |
| HOP-62 | 0.966 |

| Cell Line | relative viability |
| --- | --- |
| HCC-44 | 0.859 |
| A549 | 0.921 |
| LXF-289 | 0.915 |
| BEN | 1.03 |
| HARA | 0.735 |
| HCC-78 | 0.971 |
| LCLC-97TM1 | 0.974 |
| NCI-H2023 | 0.633 |
| A-427 | 0.878 |
| NCI-H460 | 0.857 |
| NCI-H727 | 0.924 |
| NCI-H1755 | 0.697 |
| NCI-H520 | 0.943 |
| NCI-H2405 | 0.901 |
| SW 1573 | 0.909 |
| NCI-H1395 | 0.766 |

compound: Cc1ccc(NC(=O)c2ccc(CN3CCN(C)CC3)cc2)cc1Nc1nc(-c2cccnc2)cs1 [Masitinib]; assay: as above; conditions: 0.01 µM
Summary of the method: as §1

| Cell Line | relative viability |
| --- | --- |
| NCI-H2087 | 0.961 |
